Reference: patent publication WO2016169030A1, “Fumarate and crystals of pyridylamine compound” (priority 2015, dated 2016)

Assay: Humidity (wettability/hygroscopicity) test, Chinese Pharmacopoeia 2010
Assay type: physicochemical
Conditions: Guidelines for Drug Wetting Test, Chinese Pharmacopoeia 2010 Edition 2 Appendix XIX J; Table 2

Structure (SMILES) | Wet weight gain
CC(=O)Nc1ncc(-c2cnn(C3CCNCC3)c2)cc1O[C@H](C)c1c(Cl)ccc(F)c1Cl.O=C(O)/C=C/C(=O)O [Fumarate] | 0.80%
O=C(O)CC(O)C(=O)O (stereo not drawn) [Malate] | 7.83%
CC(=O)Nc1ncc(-c2cnn(C3CCNCC3)c2)cc1O[C@H](C)c1c(Cl)ccc(F)c1Cl [Compound of formula (II), N-Acetyl-3-[(1R)-1-(2,6-dichloro-3-fluorophenyl)ethoxy]-5-[1-(4-piperidinyl)-1H-pyrazol-4-yl]-2-pyridinamine] | 61.75%
